Experimental data as given in patent US10577363B2, “Substituted piperidine compounds” (EPIZYME, INC., priority 2014, dated 2020).
Values belong to the molecule of their own block, whether it stands above or below them.

How the values were obtained:
SMYD3 [1] = molecular target: T1, SMYD3 (Homo sapiens (Human), UniProt Q9H7B4); test: SMYD3 cell assay (Trimethyl-MEKK2 In-Cell Western in 293T/17 cells); type: cell-based
Procedure, shortened: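 In-Cell Western readout: methanol-fixed cells stained for trimethyl-MEKK2 and flag tag, ratio per well normalized to DMSO and background controls.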

SMYD3 [2] = molecular target: T1, SMYD3; test: SMYD3 biochemical assay (SPA, 3H-SAM methylation of MEKK2 protein substrate)
Procedure, shortened: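 Methylation of N-terminally GST-tagged MEKK2 by untagged full-length human SMYD3, using 3H-SAM, in pH 8.0 Tris buffer with TCEP, BSG and Tween 20; enzyme and compound sat 30 min at room temperature before substrate addition. Stopped with 100 uM (final) cold SAM; incorporation read by scintillation proximity as dpm/cpm.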

[3] = 293T/17 cells, read-out: SMYD3 Cell IC50 (μM)*
[4] = read-out: SMYD3 Biochem IC50 (μM)*
[5] = IC50 values are an average of n = 1 to n = 50, read-out: SMYD3 Cell IC50*
[6] = IC50 values are an average of n = 1 to n = 50, read-out: SMYD3 Biochem IC50*
[7] = Table 2A, read-out: SMYD3 Cell IC50
[8] = Table 2A, read-out: SMYD3 Biochem IC50
[9] = read-out: SMYD3 Cell IC50 (μM)*
[10] = average of n = 1 to n = 50, read-out: SMYD3 Cell IC50
[11] = average of n = 1 to n = 50, read-out: SMYD3 Biochem IC50

T1 sequence (Q9H7B4 whole entry): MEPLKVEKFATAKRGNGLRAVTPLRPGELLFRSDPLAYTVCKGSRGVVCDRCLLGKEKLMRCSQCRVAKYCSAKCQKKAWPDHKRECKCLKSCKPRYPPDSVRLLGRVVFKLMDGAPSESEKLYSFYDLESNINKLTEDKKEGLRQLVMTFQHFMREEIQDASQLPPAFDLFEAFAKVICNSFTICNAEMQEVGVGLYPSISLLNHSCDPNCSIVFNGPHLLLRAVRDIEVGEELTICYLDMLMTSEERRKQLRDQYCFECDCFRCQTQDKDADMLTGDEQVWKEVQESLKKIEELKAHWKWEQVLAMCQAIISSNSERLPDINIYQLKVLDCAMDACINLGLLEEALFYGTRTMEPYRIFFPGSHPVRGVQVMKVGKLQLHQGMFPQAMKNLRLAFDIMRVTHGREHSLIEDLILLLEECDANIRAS

SMILES: CCOC(=O)C1CN(S(=O)(=O)CCCN)CCC1NC(=O)c1cc(C2CC2)on1 (stereo not drawn) [compound 331, ethyl 1-((3-aminopropyl)sulfonyl)-4-(5-cyclopropylisoxazole-3-carboxamido)piperidine-3-carboxylate]
IC50 (SMYD3 [1]; [3]): 2.31 µM
IC50 (SMYD3 [2]; [4]): 0.147 µM

SMILES: O=C(N[C@H]1C[C@H]2CC[C@@H](C1)N2S(=O)(=O)CC1CCNCC1)c1cc(C2CC2)on1 [Cpd. No. 543, 5-cyclopropyl-N-((1R,3r,5S)-8-(piperidin-4-ylmethylsulfonyl)-8-aza-bicyclo [3.2.1]octan-3-yl) isoxazole-3-carboxamide]
IC50 (SMYD3 [1]; [7]): 0.0445 µM
IC50 (SMYD3 [2]; [8]): 0.0018 µM

SMILES: CN1CCN(S(=O)(=O)N2[C@@H]3CC[C@H]2C[C@@H](NC(=O)c2cc(C4CC4)on2)C3)CC1(C)C [compound 656, 5-cyclopropyl-N-((1R,3r,5S)-8-((3,3,4-trimethylpiperazin-1-yl)sulfonyl)-8-azabicyclo[3.2.1]octan-3-yl)isoxazole-3-carboxamide]
IC50 (SMYD3 [1]; [10]): 0.441 µM
IC50 (SMYD3 [2]; [11]): 0.0598 µM

SMILES: CCNC1CCN(S(=O)(=O)N2[C@@H]3CC[C@H]2C[C@@H](NC(=O)c2cc(C4CC4)on2)C3)CC1 [compound 865, 5-cyclopropyl-N-((1R,3r,5S)-8-((4-(ethylamino)piperidin-1-yl)sulfonyl)-8-azabicyclo[3.2.1]octan-3-yl)isoxazole-3-carboxamide]
IC50 (SMYD3 [1]; read-out: SMYD3 Cell IC50*): 0.0902 µM
IC50 (SMYD3 [2]; read-out: SMYD3 Biochem IC50*): 0.00855 µM

SMILES: O=C(N[C@H]1C[C@H]2CC[C@@H](C1)N2S(=O)(=O)N1CCC(NCCCC(F)(F)F)CC1)c1cc(C2CC2)on1 [compound 794, 5-cyclopropyl-N-((1R,3r,5S)-8-((4-((4,4,4-trifluorobutyl)amino)piperidin-1-yl)sulfonyl)-8-azabicyclo[3.2.1]octan-3-yl)isoxazole-3-carboxamide]
IC50 (SMYD3 [1]; read-out: SMYD3 Cell IC50*): 0.0347 µM
IC50 (SMYD3 [2]; read-out: SMYD3 Biochem IC50*): 0.00187 µM

SMILES: CN1CC2CC1CN2S(=O)(=O)N1[C@@H]2CC[C@H]1C[C@@H](NC(=O)c1cc(C3CC3)on1)C2 [compound 864, 5-cyclopropyl-N-((1R,3r,5S)-8-((5-methyl-2,5-diazabicyclo[2.2.1]heptan-2-yl)sulfonyl)-8-azabicyclo[3.2.1]octan-3-yl)isoxazole-3-carboxamide]
IC50 (SMYD3 [1]; read-out: SMYD3 Cell IC50*): 0.0862 µM
IC50 (SMYD3 [2]; read-out: SMYD3 Biochem IC50*): 0.00822 µM

SMILES: CN1CCC(N(C)S(=O)(=O)N2[C@@H]3CCC[C@@H]2CC(NC(=O)c2cc(C4CC4)on2)C3)CC1 (stereo partly drawn) [compound 709, 5-cyclopropyl-N-((1R,5R)-9-(N-methyl-N-(1-methylpiperidin-4-yl)sulfamoyl)-9-azabicyclo[3.3.1]nonan-3-yl)isoxazole-3-carboxamide]
IC50 (SMYD3 [1]; [10]): 1.92 µM
IC50 (SMYD3 [2]; [11]): 0.258 µM

SMILES: CC1(C)CN(S(=O)(=O)N2[C@@H]3CC[C@H]2C[C@@H](NC(=O)c2cc(C4CC4)on2)C3)CCN1 [compound 600, 5-cyclopropyl-N-((1R,3r,5S)-8-((3,3-dimethylpiperazin-1-yl)sulfonyl)-8-azabicyclo[3.2.1]octan-3-yl)isoxazole-3-carboxamide]
IC50 (SMYD3 [1]; [7]): 0.118 µM
IC50 (SMYD3 [2]; [8]): 0.0135 µM

SMILES: C[C@@H]1C[C@H](NC(=O)c2cc(C3CC3)on2)CCN1S(=O)(=O)CCc1ccccc1 [compound 295, 5-cyclopropyl-N-((2R,4R)-2-methyl-1-(phenethylsulfonyl)piperidin-4-yl)isoxazole-3-carboxamide]
IC50 (SMYD3 [1]; [3]): > 40 µM
IC50 (SMYD3 [2]; [4]): > 10 µM

SMILES: CC(C)Cc1cc(C(=O)N[C@H]2C[C@H]3CC[C@@H](C2)N3S(=O)(=O)CC2CCN(C)CC2)no1 [compound 993, 5-isobutyl-N-((1R,3r,5S)-8-(((1-methylpiperidin-4-yl)methyl)sulfonyl)-8-azabicyclo[3.2.1]octan-3-yl)isoxazole-3-carboxamide]
IC50 (SMYD3 [1]; [5]): 2.77 µM
IC50 (SMYD3 [2]; [6]): 0.206 µM

SMILES: CN(C)C(C)(C)c1ccc(S(=O)(=O)N2[C@@H]3CC[C@H]2C[C@@H](NC(=O)c2cc(C4CC4)on2)C3)cc1 [compound 988, 5-cyclopropyl-N-((1R,3r,5S)-8-((4-(2-(dimethylamino)propan-2-yl)phenyl)sulfonyl)-8-azabicyclo[3.2.1]octan-3-yl)isoxazole-3-carboxamide]
IC50 (SMYD3 [1]; [5]): 1.67 µM
IC50 (SMYD3 [2]; [6]): 0.158 µM

Further lines, results first:

IC50 (SMYD3 [1]; [3]): 1.34 µM
IC50 (SMYD3 [2]; [4]): 0.0865 µM
SMILES: C[C@H]1C[C@@H](NC(=O)c2cc(C3CC3)on2)CCN1S(=O)(=O)c1cccnc1NCCN [compound 475, N-((2S,4S)-1-((2-((2-aminoethyl)amino)pyridin-3-yl)sulfonyl)-2-methylpiperidin-4-yl)-5-cyclopropylisoxazole-3-carboxamide]

IC50 (SMYD3 [1]; [5]): 0.914 µM
IC50 (SMYD3 [2]; [6]): 0.101 µM
SMILES: CC(C)C1CNCCN1S(=O)(=O)N1CC[C@H](NC(=O)c2cc(C3CC3)on2)C[C@@H]1C (stereo partly drawn) [compound 975, 5-cyclopropyl-N-((2S,4S)-1-((2-isopropylpiperazin-1-yl)sulfonyl)-2-methylpiperidin-4-yl)isoxazole-3-carboxamide]

IC50 (SMYD3 [1]; [9]): 1.76 µM
IC50 (SMYD3 [2]; [4]): 0.245 µM
SMILES: NC1CCC(C(=O)N2CCC(NC(=O)c3cc(C4CC4)on3)C3(CC3)C2)CC1 (stereo not drawn) [compound 156, N-(5-((1r,4r)-4-aminocyclohexane-1-carbonyl)-5-azaspiro[2.5]octan-8-yl)-5-cyclopropylisoxazole-3-carboxamide]

IC50 (SMYD3 [1]; [9]): 1.81 µM
IC50 (SMYD3 [2]; [4]): 0.282 µM
SMILES: C[C@@H]1CN(C(=O)[C@H]2CC[C@H](N)CC2)CC[C@@H]1NC(=O)c1cc(C2CC2)on1 [compound 148, N-((3R,4S)-1-((1r,4R)-4-aminocyclohexane-1-carbonyl)-3-methylpiperidin-4-yl)-5-cyclopropylisoxazole-3-carboxamide]

IC50 (SMYD3 [1]; [7]): 0.293 µM
IC50 (SMYD3 [2]; [8]): 0.008 µM
SMILES: C[C@@H]1C[C@H](NC(=O)c2cc(C3CC3)on2)CCN1S(=O)(=O)CC1CCN(Cc2ccccc2)CC1 [compound 573, N-((2R,4R)-1-(((1-benzylpiperidin-4-yl)methyl)sulfonyl)-2-methylpiperidin-4-yl)-5-cyclopropylisoxazole-3-carboxamide]

IC50 (SMYD3 [1]; [10]): 0.576 µM
IC50 (SMYD3 [2]; [11]): 0.101 µM
SMILES: C[C@H]1CN(S(=O)(=O)N(C)C2CCN(C)CC2)CC[C@H]1NC(=O)c1cc(C2CC2)on1 [compound 668, 5-cyclopropyl-N-((3S,4R)-3-methyl-1-(N-methyl-N-(1-methylpiperidin-4-yl)sulfamoyl)piperidin-4-yl)isoxazole-3-carboxamide]

IC50 (SMYD3 [1]; [9]): 1.31 µM
IC50 (SMYD3 [2]; [4]): 0.142 µM
SMILES: C[C@@H]1CC(NC(=O)c2cc(C3CC3)on2)CCN1C(=O)C12C3C4C1C1C2C3C41N (stereo partly drawn) [compound 202, N-((2R)-1-(4-aminocubane-1-carbonyl)-2-methylpiperidin-4-yl)-5-cyclopropylisoxazole-3-carboxamide]

IC50 (SMYD3 [1]; [3]): 2.24 µM
IC50 (SMYD3 [2]; [4]): 0.0658 µM
SMILES: NCCCS(=O)(=O)N1CCC(NC(=O)c2cc(C3CC3)on2)C[C@@H]1c1ccccc1 (stereo partly drawn) [compound 480, N-((2R)-1-((3-aminopropyl)sulfonyl)-2-phenylpiperidin-4-yl)-5-cyclopropylisoxazole-3-carboxamide]

IC50 (SMYD3 [1]; read-out: SMYD3 Cell IC50*): 0.0758 µM
IC50 (SMYD3 [2]; read-out: SMYD3 Biochem IC50*): 0.00553 µM
SMILES: C[C@H]1C[C@@H](NC(=O)c2cc(C3CC3)on2)CCN1S(=O)(=O)N1CCC(N2CCCC2)CC1 [compound 847, 5-cyclopropyl-N-((2S,4S)-2-methyl-1-((4-(pyrrolidin-1-yl)piperidin-1-yl)sulfonyl)piperidin-4-yl)isoxazole-3-carboxamide]

IC50 (SMYD3 [1]; [9]): 0.792 µM
IC50 (SMYD3 [2]; [4]): 0.155 µM
SMILES: C[C@H]1CC(NC(=O)c2cc(C3CC3)on2)CCN1S(=O)(=O)CCN (stereo partly drawn) [compound 78, N-((2S)-1-((2-aminoethyl)sulfonyl)-2-methylpiperidin-4-yl)-5-cyclopropylisoxazole-3-carboxamide]
